Measured values reported in patent US8034580B2, “Determining presence of antibiotic in a fluid” (DSM IP Assets B.V., priority 2003, dated 2011).

Tests used:
Assay type in all cases: cell-based
[1] = system: microorganism of Delvotest® MCS test medium; test: Production scale Delvotest MCS microbiological inhibition test, sensitivity for different antibiotics (Example 4)
Method: Two series of test systems were prepared on production scale. The first series is a commercially available Delvotest® MCS and the second series is as the first with Bromocresol Purple replaced with Bromothymol Blue (160 mg·l^−1). The sensitivity for different antibiotics was determined reading the test at the moment at which an antibiotic-free control changed color. The results are in the Table below (sensitivity values in ppb).

[2] = system: microorganism of Delvotest® MCS test medium; test: Delvotest MCS microbial inhibition test, sensitivity for different antibiotics, plate test or tube test (Example 2)
Method: […] The sensitivity for different antibiotics was determined by investigating two sets of six experiments using either a plate test or a tube test system. The sensitivity was determined by reading the test at the moment at which an antibiotic-free control changed color.

[3] = system: microorganism of Delvotest® MCS test medium; test: Delvotest MCS microbial inhibition test, sensitivity for penicillin G (Example 1)
Method: Commercially available Delvotest® MCS, prepared according to the methods described in EP 0005891, was adapted by the replacement of the indicator Bromocresol Purple by Bromothymol Blue (160 mg·l^−1). The sensitivity for penicillin G was determined by investigating samples containing different concentrations of penicillin G in different test systems. The results are summarized in the Table below (sensitivity values in ppb).

[4] = system: microorganism of Delvotest® MCS test medium; test: Delvotest MCS type test systems with equal indicator concentration, sensitivity for penicillin G (Example 3)
Method: Two test systems were prepared. The first system differs only from a commercially available Delvotest® MCS in that the concentration of Bromocresol Purple is 160 mg·l^−1, and the second series is as the first with Bromocresol Purple replaced with Bromothymol Blue (160 mg·l^−1). The sensitivity for penicillin G was determined reading the test at the moment at which an antibiotic-free control changed color. From the results as shown in the Table below (sensitivity values in ppb) it can be seen that the sensitivity of Bromothymol Blue is better then that of Bromocresol Purple at the same concentrations of indicator.

[5] = indicator Bromocresol Purple, Batch #1, three weeks after production
[6] = indicator Bromothymol Blue (160 mg·l^−1), Batch #1, three weeks after production
[7] = indicator Bromocresol Purple (BP), experiment # 0
[8] = indicator Bromothymol Blue (160 mg·l^−1), plate test, experiment # 1
[9] = indicator Bromothymol Blue (160 mg·l^−1), plate test, experiment # 2
[10] = indicator Bromothymol Blue (160 mg·l^−1), plate test, experiment # 3
[11] = indicator Bromothymol Blue (160 mg·l^−1), plate test, experiment # 4
[12] = indicator Bromothymol Blue (160 mg·l^−1), plate test, experiment # 5
[13] = indicator Bromothymol Blue (160 mg·l^−1), plate test, experiment # 6
[14] = indicator Bromothymol Blue (160 mg·l^−1), tube test, experiment # 7
[15] = indicator Bromothymol Blue (160 mg·l^−1), tube test, experiment # 8
[16] = indicator Bromothymol Blue (160 mg·l^−1), tube test, experiment # 9
[17] = indicator Bromothymol Blue (160 mg·l^−1), tube test, experiment # 10
[18] = indicator Bromothymol Blue (160 mg·l^−1), tube test, experiment # 11
[19] = indicator Bromothymol Blue (160 mg·l^−1), tube test, experiment # 12

Row | Compound | sensitivity [1, 5] [ppb] | sensitivity [1, 6] [ppb] | sensitivity [2, 7] [ppb] | sensitivity [2, 8] [ppb] | sensitivity [2, 9] [ppb] | sensitivity [2, 10] [ppb] | sensitivity [2, 11] [ppb] | sensitivity [2, 12] | sensitivity [2, 13] | sensitivity [2, 14] [ppb] | sensitivity [2, 15] [ppb] | sensitivity [2, 16] [ppb] | sensitivity [2, 17] [ppb] | sensitivity [2, 18] [ppb] | sensitivity [2, 19] [ppb] | other results
1 | CC(=O)OCC1=C(C(=O)O)N2C(=O)[C@@H](NC(=O)CSc3ccncc3)[C@H]2SC1 [Cephapirin] | 8 | 4 | 8 | 2 | 2 | 4 | 6 | 2 ppb | 4-6 ppb | 4 | 4 | 4 | 4 | 4 | 4 | –
2 | Neomycin | 400 | 200 | 600 | 100 | 100 | 100 | 100 | 100 ppb | 100 ppb | 200 | 200 | 200 | 200 | 200 | 200 | –
3 | Nc1ccc(S(=O)(=O)Nc2ncccn2)cc1 [Sulfadiazine] | – | – | 50 | 50 | 50 | 50 | 50 | 50 ppb | 50 ppb | 50 | 50 | 50 | 50 | 50 | 50 | sensitivity with Bromothymol Blue in comparison with Bromocresol purple ([2]; comparison of the two indicators, in words): identical
4 | Cc1onc(-c2ccccc2Cl)c1C(=O)N[C@@H]1C(=O)N2[C@@H]1SC(C)(C)[C@@H]2C(=O)O [Cloxacillin] | 40 | 20 | 40 | 10 | 10 | 10 | 10 | 10 ppb | 10 ppb | 20 | 20 | 20 | 20 | 20 | 20 | –
5 | CC1(C)S[C@@H]2[C@H](NC(=O)[C@H](N)c3ccc(O)cc3)C(=O)N2[C@H]1C(=O)O [Amoxicillin] | 8 | 4 | 8 | 4 | 2 | 2 | 2 | 2-4 ppb | 2 ppb | 4 | 4 | 4 | 4 | 4 | 4 | –
6 | CC1(C)S[C@@H]2[C@H](NC(=O)[C@H](N)c3ccccc3)C(=O)N2[C@H]1C(=O)O [Ampicillin] | 6 | 2 | 8 | 2 | 2 | 2 | 2 | 2 ppb | 2 ppb | 2 | 2 | 2 | 2 | 2 | 2 | –
7 | CC1(C)S[C@@H]2[C@H](NC(=O)Cc3ccccc3)C(=O)N2[C@H]1C(=O)O [Penicillin G] | 3 | 2 | 3 | 1 | 2 | 1 | 1 | 1-2 ppb | 1 ppb | 2 | 2 | 2 | 2 | 2 | 2 | sensitivity ([1]; indicator Bromocresol Purple, Batch #1, immediately after production): 3 ppb; sensitivity ([1]; indicator Bromothymol Blue (160 mg·l^−1), Batch #1, immediately after production): 2 ppb; sensitivity ([3]; indicator Bromocresol Purple, Penicillin G concentrations of 0, 1, 2, 3 and 4 ppb investigated): 3 ppb; sensitivity ([3]; indicator Bromocresol Purple, Penicillin G concentrations of 0, 2, 4 and 6 ppb investigated): 4 ppb; sensitivity ([3]; indicator Bromothymol Blue (160 mg·l^−1), Penicillin G concentrations of 0, 1, 2, 3 and 4 ppb investigated): 2 ppb; sensitivity ([3]; indicator Bromothymol Blue (160 mg·l^−1), Penicillin G concentrations of 0, 2, 4 and 6 ppb investigated): 2 ppb; sensitivity ([4]; indicator Bromocresol Purple (160 mg·l^−1)): 3 ppb; sensitivity ([4]; indicator Bromothymol Blue (160 mg·l^−1)): 2 ppb
